# Results reported in the supplement of paper PMC10307832.
# Compound: NCC(=O)Nc1ccc(-n2nc(C(F)(F)F)cc2-c2ccc3c(ccc4ccccc43)c2)cc1 + Cc1nc(NC(=O)N2CCC[C@H]2C(N)=O)sc1-c1ccnc(C(C)(C)C(F)(F)F)c1 [Alpelisib] (partner 2 µM)
# Assay: relative viability (nuclei count vs DMSO), 5 days (fraction); higher = more cells survive
# Conditions: first compound 0.06325 µM
# Procedure, shortened: (§1)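 One day after seeding in 1536-well plates, lung cancer cell lines were dosed by pin tool. Dosing was either single-drug or a fixed anchor-drug dose plus five library-drug doses (not always all listed) in √10 steps. After 5 days, nuclei were stained in one fix-and-stain step and counted on 4× images, and relative viability is the nuclei count of treated wells over that of vehicle wells, given as the median of duplicate plates.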
row,Cell Line,relative viability
1,NCI-H2085,0.978
2,Calu-6,1.07
3,HCC-366,0.432
4,NCI-H1666,0.869
5,NCI-H596,0.5
6,LK-2,1.04
7,NCI-H2087,0.82
8,SK-MES-1,0.981
9,H3255,0.651
10,COR-L23,0.822
11,COR-L 105,1.12
12,IA-LM,0.715
13,LOU-NH91,0.788
14,NCI-H2170,0.716
15,NCI-H2405,0.826
16,HOP-62,0.995
17,HCC-44,0.832
18,A549,0.84
19,LU99A,0.489
20,BEN,1.06
21,HARA,0.958
22,NCI-H661,0.626
23,NCI-H1299,1.11
24,NCI-H1563,0.837
25,ABC-1,0.88
26,NCI-H358,0.881
27,NCI-H650,1.24

# Same assay, conditions: first compound 0.2 µM
row,Cell Line,relative viability
1,NCI-H727,0.614
2,EBC-1,0.962
3,NCI-H1703,0.343
4,NCI-H1993,0.612
5,SW 1573,0.807
6,NCI-H838,1.12
7,LCLC-103H,1.03
8,NCI-H520,1.04
9,NCI-H2126,0.724
10,EMC-BAC-2,0.764
11,NCI-H2085,0.943
12,Calu-6,1.15
13,HCC-366,0.489
14,NCI-H1666,0.852
15,NCI-H596,0.483
16,LK-2,0.979
17,NCI-H2087,1.06
18,SK-MES-1,0.925

row,Cell Line,relative viability
1,H3255,0.746
2,COR-L23,0.898
3,COR-L 105,1.26
4,IA-LM,0.937
5,LOU-NH91,0.702
6,NCI-H2170,0.823
7,NCI-H2405,0.831
8,HOP-62,0.922
9,HCC-44,0.817
10,A549,0.898
11,LU99A,0.56
12,BEN,1.1
13,HARA,0.844
14,NCI-H661,0.693
15,NCI-H1299,1.09
16,NCI-H1563,0.962
17,NCI-H358,0.931
18,NCI-H650,1.3

# Same assay, conditions: first compound 0.6325 µM
row,Cell Line,relative viability
1,NCI-H727,0.531
2,EBC-1,0.835
3,NCI-H1703,0.353
4,NCI-H1993,0.621
5,SW 1573,0.75
6,NCI-H838,0.916
7,LCLC-103H,0.917
8,NCI-H520,0.92
9,NCI-H2126,0.765
10,EMC-BAC-2,0.772
11,NCI-H2085,0.972
12,Calu-6,0.943
13,HCC-366,0.435
14,NCI-H1666,0.937
15,NCI-H596,0.553
16,LK-2,1.14
17,NCI-H2087,1.16
18,SK-MES-1,0.816
19,H3255,0.811

row,Cell Line,relative viability
1,COR-L23,0.722
2,COR-L 105,0.896
3,IA-LM,0.784
4,LOU-NH91,0.775
5,NCI-H2170,0.886
6,NCI-H2405,0.782
7,HOP-62,0.975
8,HCC-44,0.709
9,A549,0.747
10,LU99A,0.562
11,BEN,1.05
12,HARA,0.831
13,NCI-H661,0.758
14,NCI-H1299,1.08
15,NCI-H1563,0.928
16,ABC-1,1.06
17,NCI-H358,0.821
18,NCI-H650,1.13

# Same assay, conditions: first compound 2 µM
row,Cell Line,relative viability
1,NCI-H727,0.686
2,EBC-1,0.834
3,NCI-H1703,0.385
4,NCI-H1993,0.762
5,SW 1573,0.765
6,NCI-H838,0.933
7,LCLC-103H,0.985
8,NCI-H520,0.896
9,NCI-H2126,0.788
10,EMC-BAC-2,0.715
11,NCI-H2085,0.965
12,Calu-6,0.913
13,HCC-366,0.322
14,NCI-H1666,1.09
15,NCI-H596,0.505
16,LK-2,0.969
17,NCI-H2087,0.945
18,SK-MES-1,0.919
19,H3255,0.731

row,Cell Line,relative viability
1,COR-L23,0.745
2,COR-L 105,0.969
3,IA-LM,0.782
4,LOU-NH91,0.799
5,NCI-H2170,0.88
6,NCI-H2405,0.923
7,HOP-62,0.859
8,HCC-44,0.785
9,A549,0.657
10,LU99A,0.456
11,BEN,1.06
12,HARA,0.867
13,NCI-H661,0.94
14,NCI-H1299,1.03
15,NCI-H1563,1.05
16,ABC-1,1.14
17,NCI-H358,0.939
18,NCI-H650,1.37

# Compound: NCC(=O)Nc1ccc(-n2nc(C(F)(F)F)cc2-c2ccc3c(ccc4ccccc43)c2)cc1 + Nc1nc2[nH]cc(CCc3ccc(C(=O)N[C@@H](CCC(=O)O)C(=O)O)cc3)c2c(=O)[nH]1 [Pemetrexed] (partner 0.2 µM)
# Assay: as above
# Conditions: first compound 0.02 µM
# Procedure, shortened: as §1
row,Cell Line,relative viability
1,NCI-H2342,0.796
2,NCI-H1650,0.399
3,NCI-H1993,0.579
4,SW 1573,0.847
5,NCI-H838,0.259
6,LCLC-103H,0.406
7,NCI-H520,0.676
8,NCI-H2126,0.667
9,EMC-BAC-2,0.403
10,NCI-H2085,0.831
11,HCC-366,0.173
12,NCI-H1666,0.947
13,NCI-H596,0.521
14,LK-2,0.295
15,NCI-H2087,0.619
16,NCI-H1648,0.625
17,SK-MES-1,0.911
18,H3255,0.561

row,Cell Line,relative viability
1,COR-L23,0.197
2,COR-L 105,1.19
3,LOU-NH91,0.356
4,ChaGo-K-1,0.256
5,NCI-H2170,0.251
6,NCI-H2405,1.04
7,HOP-62,0.334
8,HCC-44,0.634
9,NCI-H522,0.968
10,LU99A,0.182
11,BEN,0.782
12,HARA,0.253
13,SW 900,0.501
14,NCI-H661,0.882
15,NCI-H1563,0.801
16,NCI-H358,0.168
17,NCI-H650,0.907

# Same assay, conditions: first compound 0.06325 µM
row,Cell Line,relative viability
1,NCI-H2342,0.757
2,NCI-H1650,0.423
3,NCI-H1993,0.504
4,SW 1573,0.805
5,NCI-H838,0.25
6,LCLC-103H,0.481
7,NCI-H520,0.716
8,NCI-H2126,0.714
9,EMC-BAC-2,0.457
10,NCI-H2085,0.967
11,HCC-366,0.149
12,NCI-H1666,0.881
13,NCI-H596,0.455
14,LK-2,0.207
15,NCI-H2087,0.685
16,NCI-H1648,0.636
17,SK-MES-1,0.919
18,H3255,0.49

row,Cell Line,relative viability
1,COR-L23,0.203
2,COR-L 105,1.21
3,LOU-NH91,0.393
4,ChaGo-K-1,0.263
5,NCI-H2170,0.262
6,NCI-H2405,1.04
7,HOP-62,0.29
8,HCC-44,0.624
9,NCI-H522,0.973
10,LU99A,0.153
11,BEN,0.869
12,HARA,0.241
13,SW 900,0.495
14,NCI-H661,0.954
15,NCI-H1563,0.81
16,NCI-H358,0.164
17,NCI-H650,0.9

# Same assay, conditions: first compound 0.2 µM
row,Cell Line,relative viability
1,NCI-H2342,0.764
2,NCI-H1650,0.331
3,NCI-H1993,0.59
4,SW 1573,0.81
5,NCI-H838,0.253
6,LCLC-103H,0.434
7,NCI-H520,0.761
8,NCI-H2126,0.736
9,EMC-BAC-2,0.465
10,NCI-H2085,0.92
11,HCC-366,0.183
12,NCI-H1666,0.87
13,NCI-H596,0.548
14,LK-2,0.294
15,NCI-H2087,0.681
16,NCI-H1648,0.647
17,SK-MES-1,1.05
18,H3255,0.552

row,Cell Line,relative viability
1,COR-L23,0.209
2,COR-L 105,1.09
3,LOU-NH91,0.375
4,ChaGo-K-1,0.263
5,NCI-H2170,0.239
6,NCI-H2405,1.26
7,HOP-62,0.3
8,HCC-44,0.682
9,NCI-H522,0.874
10,LU99A,0.202
11,BEN,0.775
12,HARA,0.258
13,SW 900,0.453
14,NCI-H661,0.929
15,NCI-H1563,0.702
16,NCI-H358,0.179
17,NCI-H650,0.896

# Same assay, conditions: first compound 0.6325 µM
row,Cell Line,relative viability
1,NCI-H2342,0.762
2,NCI-H1650,0.485
3,NCI-H1993,0.628
4,SW 1573,0.796
5,NCI-H838,0.232
6,LCLC-103H,0.447
7,NCI-H520,0.661
8,NCI-H2126,0.724
9,EMC-BAC-2,0.421
10,NCI-H2085,0.892
11,HCC-366,0.162
12,NCI-H1666,0.851
13,NCI-H596,0.494
14,LK-2,0.256
15,NCI-H2087,0.639
16,NCI-H1648,0.706
17,SK-MES-1,0.85
18,H3255,0.565

row,Cell Line,relative viability
1,COR-L23,0.169
2,COR-L 105,1.23
3,LOU-NH91,0.389
4,ChaGo-K-1,0.27
5,NCI-H2170,0.265
6,NCI-H2405,1.04
7,HOP-62,0.275
8,HCC-44,0.657
9,NCI-H522,0.86
10,LU99A,0.164
11,BEN,0.758
12,HARA,0.245
13,SW 900,0.508
14,NCI-H661,0.915
15,NCI-H1563,0.722
16,NCI-H358,0.193
17,NCI-H650,0.872

# Same assay, conditions: first compound 2 µM
row,Cell Line,relative viability
1,NCI-H2342,0.812
2,NCI-H1650,0.38
3,NCI-H1993,0.599
4,SW 1573,0.75
5,NCI-H838,0.284
6,LCLC-103H,0.437
7,NCI-H520,0.623
8,NCI-H2126,0.69
9,EMC-BAC-2,0.408
10,NCI-H2085,1.01
11,HCC-366,0.282
12,NCI-H1666,0.878
13,NCI-H596,0.441
14,LK-2,0.217
15,NCI-H2087,0.718
16,NCI-H1648,0.687
17,SK-MES-1,1.08
18,H3255,0.601

row,Cell Line,relative viability
1,COR-L23,0.202
2,COR-L 105,1.01
3,LOU-NH91,0.34
4,ChaGo-K-1,0.264
5,NCI-H2170,0.269
6,NCI-H2405,1.16
7,HOP-62,0.314
8,HCC-44,0.63
9,NCI-H522,1.07
10,LU99A,0.168
11,BEN,0.688
12,HARA,0.246
13,SW 900,0.495
14,NCI-H661,0.907
15,NCI-H1563,0.737
16,NCI-H358,0.185
17,NCI-H650,0.913
